From patent US8802405B2, “Ethanologenic Clostridium species, Clostridium coskatii” (Coskata, Inc., priority 2010, dated 2014)

Key:
Assay in all cases: Growth on various substrates (carbon substrate utilization)
[1] = system: C. coskatii PS02; type: cell-based, Clostridium coskatii (PS02); details: for Growth on substrate: C. coskatii PS02, 1 g/L carbon source, N2:CO2 (80%:20%), OD600; for Chemoorganotrophic growth on substrate (in words): Clostridium coskatii (PS02)
Method: (§1) Growth was measured spectrophotometrically at 600 nm (Spectronic 20D; Milton Roy). Carbon substrate utilization was based upon growth after consecutive transfers in media containing 1 g/L of each carbon source. For carbon substrates, screening was performed under an atmosphere of N2: CO2 (80%:20%). A positive growth response was recorded for an OD600 exceeding 0.2 AU. For citrate, additional ^13C-labeled isotope experiments were conducted to determine the nature of products by analysis of final 0.2 μm-filtered product samples by carbon NMR using a Bruker UltraShield Avance 400 MHz nuclear magnetic resonance spectrometer.

[2] = system: C. ragsdalei; type: cell-based, Clostridium ragsdalei; details: for Growth on substrate: 1 g/L carbon source, N2:CO2 (80%:20%), OD600
Method: as §1

[3] = system: C. ljungdahlii PETC; type: cell-based, Clostridium ljungdahlii PETC; details: 1 g/L carbon source, N2:CO2 (80%:20%), OD600
Method: as §1

[4] = system: C. autoethangenum; type: cell-based, Clostridium autoethanogenum; details: C. autoethangenum; 1 g/L carbon source; N2:CO2 (80%:20%); OD600
Method: as §1

Structure (SMILES) | Growth on substrate [1] | Chemoorganotrophic growth on substrate (in words) [1] | Growth on substrate [2] | Growth on substrate [3] | Growth on substrate [4] | Growth on substrate (in words) [2]
CC(=O)C(=O)O [Na-Pyruvate] | + (A positive growth response was recorded for an OD600 exceeding 0.2 AU) | growth was observed | + (A positive growth response was recorded for an OD600 exceeding 0.2 AU) | + (A positive growth response was recorded for an OD600 exceeding 0.2 AU) | + (A positive growth response was recorded for an OD600 exceeding 0.2 AU) | –
N=C(N)NCCC[C@H](N)C(=O)O [Arginine] | + (A positive growth response was recorded for an OD600 exceeding 0.2 AU) | growth was observed | – | + (A positive growth response was recorded for an OD600 exceeding 0.2 AU) | + (A positive growth response was recorded for an OD600 exceeding 0.2 AU) | inability
C[C@H](N)C(=O)O [Alanine] | + (A positive growth response was recorded for an OD600 exceeding 0.2 AU) | growth was observed | + (A positive growth response was recorded for an OD600 exceeding 0.2 AU) | + (A positive growth response was recorded for an OD600 exceeding 0.2 AU) | + (A positive growth response was recorded for an OD600 exceeding 0.2 AU) | –
O=C(O)CCC(=O)C(=O)O [Alpha-ketoglutarate] | + (A positive growth response was recorded for an OD600 exceeding 0.2 AU) | growth was observed | + (A positive growth response was recorded for an OD600 exceeding 0.2 AU) | + (A positive growth response was recorded for an OD600 exceeding 0.2 AU) | + (A positive growth response was recorded for an OD600 exceeding 0.2 AU) | –
O=C(O)CC(O)C(=O)O (stereo not drawn) [Malic acid] | + (A positive growth response was recorded for an OD600 exceeding 0.2 AU) | growth was observed | + (A positive growth response was recorded for an OD600 exceeding 0.2 AU) | + (A positive growth response was recorded for an OD600 exceeding 0.2 AU) | + (A positive growth response was recorded for an OD600 exceeding 0.2 AU) | –
O=C(O)[C@H](O)[C@@H](O)[C@H](O)[C@H](O)CO [D-Gluconic Acid] | – | inability | – | + (A positive growth response was recorded for an OD600 exceeding 0.2 AU) | + (A positive growth response was recorded for an OD600 exceeding 0.2 AU) | –
O=C[C@H](O)[C@@H](O)[C@H](O)CO [Xylose] | + (A positive growth response was recorded for an OD600 exceeding 0.2 AU) | growth was observed | + (A positive growth response was recorded for an OD600 exceeding 0.2 AU) | + (A positive growth response was recorded for an OD600 exceeding 0.2 AU) | + (A positive growth response was recorded for an OD600 exceeding 0.2 AU) | –
N[C@@H](CCC(=O)O)C(=O)O [Glutamate] | + (A positive growth response was recorded for an OD600 exceeding 0.2 AU) | growth was observed | + (A positive growth response was recorded for an OD600 exceeding 0.2 AU) | + (A positive growth response was recorded for an OD600 exceeding 0.2 AU) | + (A positive growth response was recorded for an OD600 exceeding 0.2 AU) | –
OC[C@H]1O[C@@](CO)(O[C@H]2O[C@H](CO)[C@@H](O)[C@H](O)[C@H]2O)[C@@H](O)[C@@H]1O [Sucrose] | + (A positive growth response was recorded for an OD600 exceeding 0.2 AU) | growth was observed | + (A positive growth response was recorded for an OD600 exceeding 0.2 AU) | + (A positive growth response was recorded for an OD600 exceeding 0.2 AU) | + (A positive growth response was recorded for an OD600 exceeding 0.2 AU) | –
NC(=O)CC[C@H](N)C(=O)O [Glutamine] | + (A positive growth response was recorded for an OD600 exceeding 0.2 AU) | growth was observed | + (A positive growth response was recorded for an OD600 exceeding 0.2 AU) | + (A positive growth response was recorded for an OD600 exceeding 0.2 AU) | + (A positive growth response was recorded for an OD600 exceeding 0.2 AU) | –
OCc1ccccc1O[C@@H]1O[C@H](CO)[C@@H](O)[C@H](O)[C@H]1O [Salicin] | + (A positive growth response was recorded for an OD600 exceeding 0.2 AU) | growth was observed | + (A positive growth response was recorded for an OD600 exceeding 0.2 AU) | + (A positive growth response was recorded for an OD600 exceeding 0.2 AU) | + (A positive growth response was recorded for an OD600 exceeding 0.2 AU) | –
O=C(O)CC(=O)O [Malonic acid] | + (A positive growth response was recorded for an OD600 exceeding 0.2 AU) | growth was observed | + (A positive growth response was recorded for an OD600 exceeding 0.2 AU) | + (A positive growth response was recorded for an OD600 exceeding 0.2 AU) | + (A positive growth response was recorded for an OD600 exceeding 0.2 AU) | –
N[C@@H](Cc1c[nH]cn1)C(=O)O [Histidine] | + (A positive growth response was recorded for an OD600 exceeding 0.2 AU) | growth was observed | – | + (A positive growth response was recorded for an OD600 exceeding 0.2 AU) | + (A positive growth response was recorded for an OD600 exceeding 0.2 AU) | inability
N[C@@H](CO)C(=O)O [Serine] | + (A positive growth response was recorded for an OD600 exceeding 0.2 AU) | growth was observed | + (A positive growth response was recorded for an OD600 exceeding 0.2 AU) | + (A positive growth response was recorded for an OD600 exceeding 0.2 AU) | + (A positive growth response was recorded for an OD600 exceeding 0.2 AU) | –
C[C@H](O)[C@H](O)[C@@H](O)[C@@H](O)C=O [Rhamnose] | – | inability | – | + (A positive growth response was recorded for an OD600 exceeding 0.2 AU) | + (A positive growth response was recorded for an OD600 exceeding 0.2 AU) | –
O=C(O)CC(=O)C(=O)O [Oxaloacetic acid] | + (A positive growth response was recorded for an OD600 exceeding 0.2 AU) | growth was observed | – | – | + (A positive growth response was recorded for an OD600 exceeding 0.2 AU) | inability
